From patent US4311698A, “Aminoacid derivatives of cephalosporin compounds” (priority 1980, dated 1982)
Converted amounts (≈) assume the structure as drawn.

Key:
Assay type in all cases: cell-based
[1] = system: Entero Cloac. IM 11; assay: In vitro minimal inhibitory concentration, Entero Cloac. IM 11
[2] = system: Strep. fec. MGH 2; assay: In vitro minimal inhibitory concentration, Strep. fec. MGH 2
[3] = system: Pseudomonas UI 18; assay: In vitro minimal inhibitory concentration, Pseudomonas UI 18; conditions: UI18
[4] = system: E. Coli. Brig; assay: In vitro minimal inhibitory concentration, E. Coli. Brig; conditions: Escherichia coli
[5] = system: Staph S 18713; assay: In vitro minimal inhibitory concentration, Staph S 18713
[6] = system: Prot Vulg.; assay: In vitro minimal inhibitory concentration, Prot Vulg.
[7] = system: Klebs. Pneum. MGH 2; assay: In vitro minimal inhibitory concentration, Klebs. Pneum. MGH 2
[8] = system: Pseudomonas BRK 12-4-4; assay: In vitro minimal inhibitory concentration, Pseudomonas BRK 12-4-4; conditions: BRK1244
[9] = system: Serr. Mar. IMM 16; assay: In vitro minimal inhibitory concentration, Serr. Mar. IMM 16
[10] = system: Pseudomonas #28; assay: In vitro minimal inhibitory concentration, Pseudomonas #28; conditions: Pseudomonas #28; in vitro; read-out: Minimal Inhibitory Concentration
[11] = system: Staph UC76; assay: In vitro minimal inhibitory concentration, Staph UC76
[12] = system: E. Coli. Vogel; assay: In vitro minimal inhibitory concentration, E. Coli. Vogel; conditions: Escherichia coli

## CC(=O)OCC1=C(C(=O)O)N2C(=O)C(NC(=O)[C@H](NC(=O)c3ccc(-c4ccc(NC(=O)[C@@H]5CC(OC(C)=O)CN5C(C)=O)cc4)[nH]c3=O)c3ccccc3)C2SC1 (stereo partly drawn) [Example 32, N-[6-[4-[N-Acetyl-4-(acetyloxy)-L-prolylamino]phenyl]-1,2-dihydro-2-oxoniotinyl]-7-[D-2-amino-2-phenylacetamido]-3-acetoxymethyl-3-cephem-4-carboxylic acid]
[1]
  MIC: 25 µg/mL (≈ 30.7 µM)
[2]
  MIC: 25 µg/mL (≈ 30.7 µM)
[3]
  MIC: 12.5 µg/mL (≈ 15.3 µM)
[4]
  MIC: 25 µg/mL (≈ 30.7 µM)
[5]
  MIC: 6.3 µg/mL (≈ 7.73 µM)
[6]
  MIC: 25 µg/mL (≈ 30.7 µM)
[7]
  MIC: 12.5 µg/mL (≈ 15.3 µM)
[8]
  MIC: 25 µg/mL (≈ 30.7 µM)
[9]
  MIC: > 50 µg/mL
[10]
  MIC: 12.5 µg/mL (≈ 15.3 µM)
[11]
  MIC: 1.6 µg/mL (≈ 1.96 µM)
[12]
  MIC: 6.3 µg/mL (≈ 7.73 µM)

## CC(=O)NC(C)C(=O)Nc1ccc(-c2ccc(C(=O)N[C@@H](C(=O)NC3C(=O)N4C(C(=O)O)=C(CSc5nnnn5C)CSC34)c3ccccc3)c(=O)[nH]2)cc1 (mixture of isomers) [Example 18, N-[6-[4-(N-Acetyl-DL-alanylamino)phenyl]-1,2-dihydro-3-oxonicotinyl]-7-[D-2-amino-2-phenylacetamido]-3-[[(1-methyl-1H-tetrazol-5-yl)thio]methyl]-3-cephem-4-carboxylic acid]
[1]
  MIC: 6.3 µg/mL
[2]
  MIC: 25 µg/mL
[3]
  MIC: 6.3 µg/mL
[4]
  MIC: 3.1 µg/mL
[5]
  MIC: 3.1 µg/mL
[6]
  MIC: 25 µg/mL
[7]
  MIC: 0.8 µg/mL
[8]
  MIC: 12.5 µg/mL
[9]
  MIC: 12.5 µg/mL
[10]
  MIC: 6.3 µg/mL
[11]
  MIC: 0.4 µg/mL
[12]
  MIC: 0.4 µg/mL

## CC(=O)NCCCC[C@H](NC(C)=O)C(=O)Nc1ccc(-c2ccc(C(=O)N[C@@H](C(=O)NC3C(=O)N4C(C(=O)O)=C(COC(C)=O)CSC34)c3ccccc3)c(=O)[nH]2)cc1 (stereo partly drawn) [Example 35, N-[6-[4-(N,N'-Diacetyl-L-lysylamino)phenyl]-1,2-dihydro-2-oxonicotinyl]-7-[D-2-amino-2-phenylacetamido]-3-acetoxymethyl-3-cephem-4-carboxylic acid]
[1]
  MIC: 12.5 µg/mL (≈ 15.1 µM)
[2]
  MIC: 25 µg/mL (≈ 30.1 µM)
[3]
  MIC: 6.3 µg/mL (≈ 7.59 µM)
[4]
  MIC: 25 µg/mL (≈ 30.1 µM)
[5]
  MIC: 6.3 µg/mL (≈ 7.59 µM)
[6]
  MIC: > 50 µg/mL
[7]
  MIC: 12.5 µg/mL (≈ 15.1 µM)
[8]
  MIC: 12.5 µg/mL (≈ 15.1 µM)
[9]
  MIC: > 50 µg/mL
[10]
  MIC: 12.5 µg/mL (≈ 15.1 µM)
[11]
  MIC: 3.1 µg/mL (≈ 3.74 µM)
[12]
  MIC: 6.3 µg/mL (≈ 7.59 µM)

## CC(=O)N[C@H](CC(N)=O)C(=O)Nc1ccc(-c2ccc(C(=O)N[C@@H](C(=O)NC3C(=O)N4C(C(=O)O)=C(COC(C)=O)CSC34)c3ccccc3)c(=O)[nH]2)cc1 (stereo partly drawn) [Example 13, N-[6-[4-(N-Acetyl-D-aspariginylamino)phenyl]-1,2-dihydro-2-oxonicotinyl]-7-[D-2-amino-2-phenylacetamido]-3-acetoxymethyl-3-cephem-4-carboxylic acid]
[1]
  MIC: 12.5 µg/mL (≈ 16.2 µM)
[2]
  MIC: 25 µg/mL (≈ 32.3 µM)
[3]
  MIC: 6.3 µg/mL (≈ 8.14 µM)
[4]
  MIC: 12.5 µg/mL (≈ 16.2 µM)
[5]
  MIC: 6.3 µg/mL (≈ 8.14 µM)
[6]
  MIC: 25 µg/mL (≈ 32.3 µM)
[7]
  MIC: 6.3 µg/mL (≈ 8.14 µM)
[8]
  MIC: 12.5 µg/mL (≈ 16.2 µM)
[9]
  MIC: > 50 µg/mL
[10]
  MIC: 12.5 µg/mL (≈ 16.2 µM)
[11]
  MIC: 0.8 µg/mL (≈ 1.03 µM)
[12]
  MIC: 3.1 µg/mL (≈ 4.01 µM)

## CC(=O)OCC1=C(C(=O)O)N2C(=O)C(NC(=O)[C@H](NC(=O)c3ccc(-c4ccc(NC(=O)[C@@H]5CCCN5C(C)=O)cc4)[nH]c3=O)c3ccccc3)C2SC1 (stereo partly drawn) [Example 12, N-[6-[4-(N-Acetyl-L-prolylamino)phenyl]-1,2-dihydro-2-oxonicotinyl]-7-[D-2-amino-2-phenylacetamido]-3-acetoxymethyl-3-cephem-4-carboxylic acid]
[1]
  MIC: 12.5 µg/mL (≈ 16.5 µM)
[2]
  MIC: 12.5 µg/mL (≈ 16.5 µM)
[3]
  MIC: 6.3 µg/mL (≈ 8.32 µM)
[4]
  MIC: 6.3 µg/mL (≈ 8.32 µM)
[5]
  MIC: 3.1 µg/mL (≈ 4.1 µM)
[6]
  MIC: 25 µg/mL (≈ 33 µM)
[7]
  MIC: 6.3 µg/mL (≈ 8.32 µM)
[8]
  MIC: 12.5 µg/mL (≈ 16.5 µM)
[9]
  MIC: 50 µg/mL (≈ 66.1 µM)
[10]
  MIC: 6.3 µg/mL (≈ 8.32 µM)
[11]
  MIC: 0.8 µg/mL (≈ 1.06 µM)
[12]
  MIC: 3.1 µg/mL (≈ 4.1 µM)
